Compound | melting point [°C]
COCCC(=O)NS(=O)(=O)c1ccc(NC(=O)Cc2ccc(Cl)c(Oc3cc(Cl)cc(C#N)c3)c2F)c(Cl)c1.[Na] | 133.1 to 140.7
CC(=O)Nc1cc(C)c(NC(=O)Cc2ccc(C)c(Oc3cc(Cl)cc(C#N)c3)c2)cn1 [Compound I-228, N-(6-Acetylamino-4-methyl-pyridin-3-yl)-2-[3-(3-chloro-5-cyano-phenoxy)-4-methyl-phenyl]-acetamide] | 222.5 to 224
Cc1cc(CC(=O)Nc2ccc(S(N)(=O)=O)cc2)cc(C(=O)c2ccc(Cl)cc2)c1 [Compound I-254, 2-[3-(4-Chloro-benzoyl)-5-methyl-phenyl]-N-(4-sulfamoyl-phenyl)-acetamide] | 260.9 to 263.3
Cc1ccc(CC(=O)Nc2ccccc2Cl)cc1Oc1cc(F)cc(C#N)c1 [Compound I-12, N-(2-Chloro-phenyl)-2-[3-(3-cyano-5-fluoro-phenoxy)-4-methyl-phenyl]-acetamide] | 131.1 to 132.2
Cc1ccc(CC(=O)Nc2ccccc2Cl)cc1Oc1cc(Cl)ccc1Br [Compound I-33, 2-[3-(2-Bromo-5-chloro-phenoxy)-4-methyl-phenyl]-N-(2-chloro-phenyl)-acetamide] | 133.9 to 135.9
N#Cc1cc(C#N)cc(Oc2c(Cl)ccc(CC(=O)Nc3ccccc3Cl)c2F)c1 [Compound I-28, 2-[4-Chloro-3-(3,5-dicyano-phenoxy)-2-fluoro-phenyl]-N-(2-chloro-phenyl)-acetamide] | 182.6 to 196.5
CCc1ccc(CC(=O)Nc2ccc(S(N)(=O)=O)cc2C)c(F)c1Oc1cc(C#N)cc(C(F)F)c1 [Compound I-180, 2-[3-(3-Cyano-5-difluoromethyl-phenoxy)-4-ethyl-2-fluoro-phenyl]-N-(2-methyl-4-sulfamoyl-phenyl)-acetamide] | 237.6 to 238.4
CNS(=O)(=O)c1ccc(NC(=O)Cc2ccc(Cl)c(Oc3cc(Cl)cc(C#N)c3)c2F)c(C)c1 [Compound I-108, 2-[4-Chloro-3-(3-chloro-5-cyano-phenoxy)-2-fluoro-phenyl]-N-(2-methyl-4-methylsulfamoyl-phenyl)-acetamide] | 204.4 to 207.3
CN(C(=O)Cc1ccc(Cl)c(Oc2cc(Cl)cc(C#N)c2)c1F)c1ccccc1Cl [Compound I-111, 2-[4-Chloro-3-(3-chloro-5-cyano-phenoxy)-2-fluoro-phenyl]-N-(2-chloro-phenyl)-N-methyl-acetamide] | 134 to 137.1
CCCC(=O)N(C)S(=O)(=O)c1ccc(NC(=O)Cc2ccc(Cl)c(Oc3cc(Cl)cc(C#N)c3)c2F)c(Cl)c1 [Compound I-139, N-[4-(Butyryl-methyl-sulfamoyl)-2-chloro-phenyl]-2-[4-chloro-3-(3-chloro-5-cyano-phenoxy)-2-fluoro-phenyl]-acetamide] | 186.9 to 187.6
Cc1cc(CC(=O)Nc2ccc(S(N)(=O)=O)cc2C)cc(C(=O)c2ccccc2Cl)c1 [Compound I-256, 2-[3-(2-Chloro-benzoyl)-5-methyl-phenyl]-N-(2-methyl-4-sulfamoyl-phenyl)-acetamide] | 207.7 to 209.3
Cc1cc(S(N)(=O)=O)ccc1NC(=O)Cc1ccc(C)c(Oc2cc(C#N)cc(C(F)F)c2)c1F [Compound I-85, 2-[3-(3-Cyano-5-difluoromethyl-phenoxy)-2-fluoro-4-methyl-phenyl]-N-(2-methyl-4-sulfamoyl-phenyl)-acetamide] | 218 to 220.4
Cc1cc(CC(=O)Nc2ccc(S(N)(=O)=O)cc2)cc(C(=O)c2ccccc2Cl)c1 [Compound I-263, 2-[3-(2-Chloro-benzoyl)-5-methyl-phenyl]-N-(4-sulfamoyl-phenyl)-acetamide] | 165 to 167
Cc1cc(N2CCCCS2(=O)=O)ccc1NC(=O)Cc1ccc(C)c(Oc2cc(Cl)cc(C#N)c2)c1 [Compound I-158, 2-[3-(3-Chloro-5-cyano-phenoxy)-4-methyl-phenyl]-N-[4-(1,1-dioxo-1λ^6-[1,2]thiazinan-2-yl)-2-methyl-phenyl]-acetamide] | 84.3 to 85.6
Cc1ccc(CC(=O)Nc2ccc(CC(=O)O)cc2Cl)cc1Oc1cc(Cl)cc(C#N)c1 [Compound I-236, (3-Chloro-4-{2-[3-(3-chloro-5-cyano-phenoxy)-4-methyl-phenyl]-acetylamino}-phenyl)-acetic acid] | 159.6 to 160
CCCC(=O)NS(=O)(=O)c1ccc(NC(=O)Cc2ccc(Cl)c(Oc3cc(Cl)cc(C#N)c3)c2F)c(Cl)c1.[Na] [Compound I-138, N-(4-Butyrylsulfamoyl-2-chloro-phenyl)-2-[4-chloro-3-(3-chloro-5-cyano-phenoxy)-2-fluoro-phenyl]-acetamide; sodium salt] | 157.2 to 157.9
CCC(=O)NS(=O)(=O)c1ccc(NC(=O)Cc2ccc(Cl)c(Oc3cc(Cl)cc(C#N)c3)c2F)c(Cl)c1.[Na] | 155.4 to 157.5
Cc1ccc(C#N)cc1C(=O)c1cc(CC(=O)Nc2ccccc2Cl)ccc1C [Compound I-267, N-(2-Chloro-phenyl)-2-[3-(5-cyano-2-methyl-benzoyl)-4-methyl-phenyl]-acetamide] | 129.4 to 131.6
Cc1cc(S(=O)(=O)CC(=O)O)ccc1NC(=O)Cc1ccc(C)c(Oc2cc(Cl)cc(C#N)c2)c1 [Compound I-152, (4-{2-[3-(3-Chloro-5-cyano-phenoxy)-4-methyl-phenyl]-acetylamino}-3-methyl-benzenesulfonyl)-acetic acid] | 180.5 to 181.4
Cc1ccc(CC(=O)Nc2ccc(S(N)(=O)=O)cc2Cl)c(F)c1Oc1cc(C#N)cc(C(F)F)c1 [Compound I-84, N-(2-Chloro-4-sulfamoyl-phenyl)-2-[3-(3-cyano-5-difluoromethyl-phenoxy)-2-fluoro-4-methyl-phenyl]-acetamide] | 218 to 218.7
Cc1cc(S(=O)(=O)CCC#N)ccc1NC(=O)Cc1ccc(C)c(Oc2cc(Cl)cc(C#N)c2)c1 [Compound I-137, 2-[3-(3-Chloro-5-cyano-phenoxy)-4-methyl-phenyl]-N-[4-(2-cyano-ethanesulfonyl)-2-methyl-phenyl]-acetamide] | 186.1 to 188
CCc1ccc(CC(=O)Nc2ccc(S(N)(=O)=O)cc2C)cc1Oc1cc(C#N)cc(C#N)c1Cl [Compound I-53, 2-[3-(2-Chloro-3,5-dicyano-phenoxy)-4-ethyl-phenyl]-N-(2-methyl-4-sulfamoyl-phenyl)-acetamide] | 199.4 to 205.3

Second part, the molecule after the results:

melting point [°C] | Compound
209.9 to 211.5 | Cc1ccc(CC(=O)Nc2ccc(S(N)(=O)=O)cc2Cl)cc1Oc1cc(C#N)cc(C#N)c1 [Compound I-44, N-(2-Chloro-4-sulfamoyl-phenyl)-2-[3-(3,5-dicyano-phenoxy)-4-methyl-phenyl]-acetamide]
191.8 to 192.5 | CCc1ccc(CC(=O)Nc2ccc(S(N)(=O)=O)cc2Cl)cc1Oc1cc(C#N)cc(C(F)F)c1 [Compound I-140, N-(2-Chloro-4-sulfamoyl-phenyl)-2-[3-(3-cyano-5-difluoromethyl-phenoxy)-4-ethyl-phenyl]-acetamide]
232.9 to 236.9 | COc1ccc(CC(=O)Nc2ccc(S(N)(=O)=O)cc2C)cc1Oc1cc(C#N)ccc1Cl [Compound I-66, 2-[3-(2-Chloro-5-cyano-phenoxy)-4-methoxy-phenyl]-N-(2-methyl-4-sulfamoyl-phenyl)-acetamide]
188 to 198 | CCc1ccc(CC(=O)Nc2ccc(S(N)(=O)=O)cc2)cc1Oc1cc(C#N)cc(C(F)F)c1 [Compound I-91, 2-[3-(3-Cyano-5-difluoromethyl-phenoxy)-4-ethyl-phenyl]-N-(4-sulfamoyl-phenyl)-acetamide]
181.1 to 183.9 | CCc1ccc(CC(=O)Nc2ccc(S(N)(=O)=O)cc2Cl)cc1Oc1cc(Cl)cc(C#N)c1 [Compound I-47, 2-[3-(3-Chloro-5-cyano-phenoxy)-4-ethyl-phenyl]-N-(2-chloro-4-sulfamoyl-phenyl)-acetamide]
212 to 216.1 | Cc1cc(S(N)(=O)=O)ccc1NC(=O)Cc1ccc(Cl)c(Oc2cc(C#N)cc(C(F)(F)F)c2)c1F [Compound I-120, 2-[4-Chloro-3-(3-cyano-5-trifluoromethyl-phenoxy)-2-fluoro-phenyl]-N-(2-methyl-4-sulfamoyl-phenyl)-acetamide]
219 to 221.4 | N#Cc1cc(Oc2cc(CC(=O)Nc3ccc(S(N)(=O)=O)cc3)ccc2Cl)cc(C(F)(F)F)c1 [Compound I-88, 2-[4-Chloro-3-(3-cyano-5-trifluoromethyl-phenoxy)-phenyl]-N-(4-sulfamoyl-phenyl)-acetamide]
206.9 to 209.9 | CCc1ccc(CC(=O)Nc2ccc(S(N)(=O)=O)cc2)cc1Oc1cc(Cl)cc(Br)c1Cl [Compound I-35, 2-[3-(3-Bromo-2,5-dichloro-phenoxy)-4-ethyl-phenyl]-N-(4-sulfamoyl-phenyl)-acetamide]
211.6 to 214.6 | Cc1cc(S(N)(=O)=O)ccc1NC(=O)Cc1ccc(Cl)c(Oc2cc(C#N)cc(C(F)(F)F)c2)c1 [Compound I-89, 2-[4-Chloro-3-(3-cyano-5-trifluoromethyl-phenoxy)-phenyl]-N-(2-methyl-4-sulfamoyl-phenyl)-acetamide]
235.9 to 236.7 | Cc1cc(CC(=O)Nc2ccc(S(N)(=O)=O)cc2)cc(Oc2cc(C#N)ccc2Cl)c1 [Compound I-146, 2-[3-(2-Chloro-5-cyano-phenoxy)-5-methyl-phenyl]-N-(4-sulfamoyl-phenyl)-acetamide]
204 to 207 | CCc1cc(CC(=O)Nc2ccc(S(N)(=O)=O)cc2Cl)cc(Oc2cc(C#N)ccc2Cl)c1 [Compound I-107, 2-[3-(2-Chloro-5-cyano-phenoxy)-5-ethyl-phenyl]-N-(2-chloro-4-sulfamoyl-phenyl)-acetamide]
135.7 to 138.1 | N#Cc1cc(C#N)cc(Oc2c(Cl)ccc(CC(=O)Nc3ccc(S(N)(=O)=O)cc3)c2F)c1 [Compound I-9, 2-[4-Chloro-3-(3,5-dicyano-phenoxy)-2-fluoro-phenyl]-N-(4-sulfamoyl-phenyl)-acetamide]
229.7 to 231.3 | Cc1cc(CC(=O)Nc2ccc(S(N)(=O)=O)cc2)cc(Oc2cc(Cl)cc(C#N)c2)c1C [Compound I-182, 2-[3-(3-Chloro-5-cyano-phenoxy)-4,5-dimethyl-phenyl]-N-(4-sulfamoyl-phenyl)-acetamide]
